Where “and” joins values, the source holds several entries; their conditions need not be identical. Identical values can stand only once. Positions of bridges follow the written chain, without caps; N, C: chain ends. Residues, ends and D or L forms follow the SMILES beside them.
Assays:
IGFBP-3 [1] = biological target: T1, IGFBP-3 (Homo sapiens, UniProt P17936); assay: KIRA assay of IGF-I activity with IGF-I plus IGFBP-3 and peptide; type: cell-based; details: FIG. 37D
Description: (§1) C. In Vitro Activation (KIRA)
(§2) The ability of several synthetic peptides to block IGF-I binding to IGFBPs and release functional IGF-I was tested in a KIRA assay of IGF-I activity, as described in Example 1. Cells were treated with IGF-I alone, peptide alone, peptide plus IGF-I, IGF-I plus binding protein (IGFBP-1 or IGFBP-3), or IGF-I plus binding protein (IGFBP-1 or IGFBP-3) and peptide.
It is believed that this would drop to 30 uM with a 1:1 ratio.

IGFBP-3 [2] = biological target: T1, IGFBP-3; assay: Biotin-BP plate assay, biotinylated IGFBP-3 binding to IGF-I (control); details: FIG. 34
Description: (§3) For inhibition of IGFBP-1 binding, IGFBP-1 (as well as IGFBP-3 as a control) were biotinylated as described above. MAXISORP™plates were coated and blocked as described above, using 2 μg/mL IGF-I. In a separate plate, serial dilutions of peptide were premixed with a constant concentration (20 nM) of biotinylated IGFBP-1. After 20 min. at room temperature, the mixture was added to the IGF-I plate. The peptide/IGFBP mix was then removed and the plate was washed ten times with PBS buffer containing 0.05% TWEEN-20™ surfactant. Bound biotin-IGFBP-1 was then detected using streptavidin-conjugated horse radish peroxidase, and a chromogenic substrate.

IGFBP-1 [3] = biological target: T2, IGFBP-1 (Homo sapiens, UniProt P08833); assay: Biotin-BP plate (ELISA) assay, biotinylated IGFBP-1 binding to IGF-I; details: for IC50: 20 nM biotinylated IGFBP-1, IGF-I coated plate, read-out: ELISA IC50, inhibition of IGF-I binding to IGFBP-1
T2 construct: biotin (chemical label, EZ-LINK NHS-SS-Biotin)
T2 sequence (P08833 26-259): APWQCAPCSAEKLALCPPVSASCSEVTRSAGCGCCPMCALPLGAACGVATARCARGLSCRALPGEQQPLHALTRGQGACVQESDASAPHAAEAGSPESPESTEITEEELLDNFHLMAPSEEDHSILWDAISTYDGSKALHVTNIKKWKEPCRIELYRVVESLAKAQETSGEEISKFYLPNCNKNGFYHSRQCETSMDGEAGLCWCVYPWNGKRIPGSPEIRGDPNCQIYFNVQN
Description: 1. Biotin-BP Assay (for IGFBP-1 Binders)
as §3
A second series of peptides made use of non-natural amino acids to probe whether other structural features such as an added methyl group at the alpha carbon, or an isomer (D-alanine) could affect peptide binding to IGFBP-1.
(§4) Substitutions at the N-terminus or C-terminus yielded affinity improvements. […] All of these peptides had similar or improved apparent affinity for IGFBP-1 as compared with bp1-01 and bp1-02 and are thus expected to increase the availability of IGF-I in an in vitro cell culture assay.

IGFBP-1 [4] = biological target: T2, IGFBP-1; assay: KIRA assay of IGF-I activity with IGF-I plus IGFBP-1 and peptide; type: cell-based; details: peptide plus IGF-I plus IGFBP-1; read-out: IC50 for blocking the inhibition of IGF-I activity by IGFBP-1 (KIRA)
Description: as §1, §2

IGFBP-1 [5] = biological target: T2, IGFBP-1; assay: BIAcore competition assay, IGFBP-1 binding to IGF-I; details: bp1-01 Ala-scan variants by BIAcore; wt = bp1-01
Description: (§5) Two series of synthetic peptide variants were generated to determine which side chains of the bp1-01 peptide might contribute directly to binding IGFBP-1. In the first series an alanine-scanning approach (Cunningham and Wells, Science, 244: 1081-1085 (1989)) was used to remove that portion of each side chain beyond the beta carbon. The contribution of these atoms to the free energy of binding of the peptide to IGFBP-1 was then assessed by measuring the potency (IC50) of the variant for inhibiting IGFBP-1 binding to IGF-I or IGF-II in a BIAcore™competition assay, analogous to that described for IGFBP-3 (see Example 7).
as §4

IGFBP-1 [6] = biological target: T2, IGFBP-1; assay: BIAcore kinetics on immobilized IGFBP-1; type: binding; details: IGFBP-1 coupled to dextran chip
Description: The kinetics of bp1-01 peptide variants were examined in a BIAcore™ (BIAcore, Inc., Piscataway, N.J.) assay using IGFBP-1 covalently coupled via EDC/NHS (as described by the manufacturer) to a dextran chip. […] The latter implies a half-life for peptide dissociation from IGFBP-1 of approximately 28 sec. The association rate constant is moderately fast, consistent with the notion that the peptide may not undergo significant conformation change upon binding to IGFBP-1.

IGFBP-1 [7] = biological target: T2, IGFBP-1; assay: BIAcore competition assay, IGFBP-1 binding to IGF-II; details: bp1-01 Ala-scan variants by BIAcore
Description: as §5

IGFBP-1 [8] = biological target: T2, IGFBP-1; assay: IGF-blocking phage assay on IGFBP-1 coated plate; type: binding; details: FIG. 28
Description: To distinguish among these possibilities, phage clones were tested for the ability to bind to IGFBP-1 or IGFBP-3 in the presence and absence of IGF-I.
IGFBP-1 or IGFBP-3 was coated directly onto MAXISORP™ plates as above. Phage from clonal cultures were mixed with IGF-I (100 nM final concentration), and incubated with the immobilized IGFBP for 1 hour at room temperature. The plates were then washed ten times, as above, and a solution of rabbit anti-phage antibody mixed with a goat-anti-rabbit conjugate of horse radish peroxidase was added. After an incubation of 1 hour at room temperature, the plates were developed with a chromogenic substrate, o-phenylenediamine (Sigma). The reaction was stopped with addition of ½ volume of 2.5 M H2SO4. Optical density at 490 nm was measured on a spectrophotometric plate reader.
These peptides are thus likely to occupy an overlapping site with the IGF-binding epitope on IGFBP-3. […] Additional peptide-phage clones were screened similarly, at a low concentration of phage, with and without IGF-I.

[9] = g8 bp1-01 selectants by ELISA plate assay, wt = bp1-01

T1 sequence (P17936 28-291): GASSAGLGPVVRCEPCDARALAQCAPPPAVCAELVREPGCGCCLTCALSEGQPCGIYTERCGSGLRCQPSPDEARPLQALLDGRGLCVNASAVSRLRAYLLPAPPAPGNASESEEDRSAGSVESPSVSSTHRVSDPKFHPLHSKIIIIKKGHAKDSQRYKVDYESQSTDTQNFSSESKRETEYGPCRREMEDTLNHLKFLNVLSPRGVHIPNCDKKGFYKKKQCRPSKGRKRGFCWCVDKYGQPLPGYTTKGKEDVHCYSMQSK

Row | Compound | effect on IGF-I activity in KIRA with IGF-I plus IGFBP-3 (IGFBP-3 [1]) | inhibition of biotinylated IGFBP-3 binding to IGF-I plate (IGFBP-3 [2]) | IC50 (IGFBP-1 [3]) | IGF-I Inhibition IC50 (mut)/IC50 (wt) (IGFBP-1 [3]; C-terminal bp1-01 variants by ELISA) | IGF-I Inhibition IC50 (mut)/IC50 (wt) (IGFBP-1 [3]; bp1-01 non-natural variants by ELISA, a = D-alanine, aib = alpha-aminoisobutyrate) | IGF-I Inhibition IC50 (mut)/IC50 (wt) (IGFBP-1 [3]; [9]) | IC50 (IGFBP-1 [4]) | IGF-I Inhibition IC50 (mut)/IC50 (wt) (IGFBP-1 [5]) | dissociation rate constant / dissociation kinetics (IGFBP-1 [6]) | IGF-II Inhibition IC50 (mut)/IC50 (wt) (IGFBP-1 [7]) | kon (IGFBP-1 [6]; read-out: association rate constant) | koff (IGFBP-1 [6]; read-out: dissociation rate constant / dissociation kinetics) | inhibition of phage binding to IGFBP-1 by IGF-I in phage titration (IGFBP-1 [8])
1 | CC(C)C[C@@H]1NC(=O)[C@H](Cc2c[nH]c3ccccc23)NC(=O)[C@H](CCC(N)=O)NC(=O)[C@H](CC(C)C)NC(=O)[C@@H]2CCCN2C(=O)CNC(=O)[C@H](C)NC(=O)[C@H](CCCNC(=N)N)NC(=O)[C@@H](N)CSSC[C@@H](C(=O)N[C@@H](CCC(=O)O)C(=O)N[C@@H](CCCCN)C(=O)N[C@@H](Cc2ccc(O)cc2)C(=O)N[C@@H](Cc2ccccc2)C(=O)NCC(N)=O)NC1=O [bp1-01] (H-CRAGPLQWLCEKYFG-NH2; disulfide 1-10; N-terminus assumed) | Neither of these peptides showed activity | no inhibition | ~180 nM and 180 nM | 1 | 1 | 1 | 397 nM | 1 | too rapid to measure | 1 |  |  | 
2 | CC(C)C[C@@H]1NC(=O)[C@H](Cc2c[nH]c3ccccc23)NC(=O)[C@H](CCC(N)=O)NC(=O)[C@H](CC(C)C)NC(=O)[C@@H]2CCCN2C(=O)CNC(=O)[C@H](C)NC(=O)[C@H](CCCNC(=N)N)NC(=O)[C@@H](NC(=O)CNC(=O)[C@@H](NC(=O)[C@H](CCC(=O)O)NC(=O)[C@@H](N)CO)C(C)C)CSSC[C@@H](C(=O)N[C@@H](CCC(=O)O)C(=O)N[C@@H](CCCCN)C(=O)N[C@@H](Cc2ccc(O)cc2)C(=O)N[C@@H](Cc2ccccc2)C(=O)NCC(N)=O)NC1=O [bp1-02] (H-SEVGCRAGPLQWLCEKYFG-NH2; disulfide 5-14; N-terminus assumed) | Neither of these peptides showed activity | no inhibition | ~50 nM and 50 nM |  |  | 0.37 | 187 nM |  |  |  | 230000 M⁻¹ s⁻¹ | 0.0503 s⁻¹ | 
3 | SEVGCRAGPLQWLCEKYF [HL-1] |  |  |  |  |  |  |  |  |  |  |  |  | inhibited by IGF-I for binding to IGFBP-1 at some phage concentration
